Assay results reported in the METLIN SMRT retention time set (Domingo-Almenara et al. 2019).

Experiment: gradient 5% acetonitrile 3 min, to 50% in 2 min, to 85% in 15 min, held 3 min, 100 µL/min
Conditions: column: Zorbax Extend-C18 2.1 x 50 mm; eluents: water / acetonitrile, 0.1% formic acid
How it was run: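 Data were gathered over 3 months by HPLC coupled to a quadrupole time-of-flight mass spectrometer, operated in positive and negative ionization mode. Mixtures of ~100 pure standards ran on a Zorbax Extend-C18 column (2.1 × 50 mm, 1.8 μm) at 100 μL/min, with water and acetonitrile each containing 0.1% formic acid and dead and dwell volumes of 40 μL and 900 μL. Retention time was read from adduct peaks picked by computer and checked manually.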

RP-LC retention time	SMILES
1060 s	O=S(=O)(c1ccc(F)cc1)N1CCC(OCCOCc2ccccc2)CC1
1100 s	Cc1ccc(NC(=O)CSc2cc(N3CCCC(C)C3)ncn2)c(C)c1 (stereo not drawn)
797 s	Cc1ccc(F)cc1S(=O)(=O)N1CCn2c(nn(CC3CC3)c2=O)C1
1130 s	Cc1nn(-c2ccc(F)cc2)c2nc(N3CCCC(C(=O)NCc4cccc(F)c4)C3)sc12 (stereo not drawn)
938 s	O=c1n(CCOc2ccc(F)cc2)nc2ccc(S(=O)(=O)N3CCCCC3)cn12
802 s	COc1ccc(Cl)cc1NC(=O)CSc1ccc2nnc(-c3cccc(F)c3)n2n1
923 s	CCCn1cc(CCNS(=O)(=O)c2ccccc2CC)c2cccnc21
652 s	CS(=O)(=O)N1CCC(C(=O)NCC(O)c2ccc(C(F)(F)F)cc2)CC1 (stereo not drawn)
567 s	O=C(NCCN1CCCCC1)C1CCN(c2ccc(-c3ccc(F)cc3)nn2)CC1
916 s	CCn1c(C(=O)NCCCOC(C)C)cc2c(=O)oc3ccccc3c21
909 s	CCc1nn2c(CNC(=O)c3cccc(F)c3)c(-c3ccccc3)nc2s1
1020 s	CCc1nn2c(CNS(=O)(=O)c3ccccc3CC)c(-c3ccccc3)nc2s1
955 s	CCS(=O)(=O)N1CC(=O)N(c2cc(Cl)ccc2C)C(C)(C(=O)NC2CCCCC2)C1 (stereo not drawn)
708 s	COc1ccccc1Oc1ccc(S(=O)(=O)NCC(=O)O)cc1
712 s	Cn1nnc2ccc(-c3noc(CNC(=O)c4cccs4)n3)cc21
938 s	CCCCOc1ccccc1C1NC(=O)NC(C)=C1C(=O)OCc1ccco1 (stereo not drawn)
1130 s	CCOc1ccc(Cc2nc(-c3ccc4oc(CC)nc4c3)no2)cc1
923 s	CCC(C)NC(=O)c1cc(-c2ccc(Cl)cc2)[nH]c1C (stereo not drawn)
660 s	O=C(Cn1cnc(-c2cccs2)cc1=O)Nc1ccc(-n2cnnn2)cc1
944 s	O=C(NC1CCCCC1)c1ccc2c(c1)N(C(=O)c1ccc(F)cc1)CC2
986 s	O=C(Nc1ccc2c(c1)OCO2)C(=O)c1cccn1Cc1ccccc1
1120 s	N#Cc1cnc2ccc(Cl)cc2c1N1CCC(C(=O)Nc2cccc(C(F)(F)F)c2)CC1

RP-LC retention time	SMILES
766 s	Cc1ccc(Cl)cc1NC(=O)CC1C(=O)NCCN1C(=O)NC1CCCCC1 (stereo not drawn)
666 s	CCc1ccc(CNC(=O)C2CCN(c3cncnc3N3CCOCC3)CC2)cc1
903 s	CCOC(=O)CC(=O)N1CCSC1COc1ccccc1OC (stereo not drawn)
596 s	O=C(Cn1cnc2cc3c(cc21)OCCO3)NCc1ccc2c(c1)OCCCO2
815 s	CN1C(=O)C2CCCCN2c2ccc(C(=O)NCCc3ccco3)cc21 (stereo not drawn)
737 s	CN(C)c1ccc(-c2nc3cnccn3c2Nc2ccc3c(c2)OCO3)cc1
972 s	COc1ccccc1-c1noc(C2CCCN2C(=O)Nc2ccccc2Br)n1 (stereo not drawn)
1080 s	N#Cc1cccc(NS(=O)(=O)c2cccc(-c3nc(-c4ccccc4)no3)c2)c1
1200 s	Cc1ccc(S(=O)(=O)N2CCC(F)(c3nc(CC(C)C)no3)CC2)cc1F
932 s	CCc1ccccc1NC(=O)C1CCN(S(=O)(=O)c2ccc3c(c2)sc(=O)n3CC)CC1
599 s	O=C(NCc1ccc(F)cc1)c1ccc(=O)n(CCN2CCOCC2)c1
796 s	Cc1ccc(C2Cn3cnc(C(=O)N4CCC(C(=O)NCc5ccccc5)CC4)c3CO2)cc1 (stereo not drawn)
536 s	O=C1C(N2CCN(S(=O)(=O)c3cccs3)CC2)CCN1Cc1cccnc1 (stereo not drawn)
1020 s	CCN1C(=O)C2(CCN(C(=O)c3ccc(OC(C)C)cc3)CC2)c2ccccc21
631 s	Cc1ccc2nc(C)cc(C(=O)NCC(C)C)c2c1
675 s	O=S(=O)(Cc1ccccc1Cl)N1CCC(CN2CCCCCC2)CC1
941 s	COc1ccc(-c2nnc(-c3ccc(C)c(S(=O)(=O)NC(C)(C)C)c3)o2)cc1OC
573 s	O=C(NCc1ccccn1)c1ccc(=O)n(Cc2ccccc2)n1
649 s	O=C(CCC1CCN(c2cc(NC3CC3)ncn2)CC1)NCc1ccc(F)cc1
788 s	COc1ccc(NC(=O)c2c(C)oc3nc(C)nc(N4CCOCC4)c23)cc1Cl
676 s	CCNC(=O)NC1CCN(c2nc3ccccc3n(C)c2=O)CC1
599 s	COc1nn(C)cc1C(=O)N1CCc2nc(NC(=O)c3ccco3)sc2C1

RP-LC retention time	SMILES
1070 s	Cc1cccc(NS(=O)(=O)c2cn(CC(C)C)c3ncccc23)c1C
822 s	O=C(CCc1nnc2c3cc(-c4ccc(F)cc4)nn3ccn12)NCc1ccc(Cl)cc1
965 s	COC(=O)c1nnn(-c2ccc(C)c(Cl)c2)c1C(=O)OC
747 s	CC(C)CC(=O)Nc1ccc(OCc2cc(C(=O)NC3CC3)no2)cc1
548 s	Cc1cc(Nc2ccc(NC(=O)Cn3cnc4ccccc43)cc2)nc(N2CCCC2)n1
663 s	O=C(Nc1cccc(F)c1)N1CCN(c2cnn3c(C4CC4)nnc3c2)CC1
797 s	CCOC(=O)Cc1csc(NC(=O)c2cc(=O)c(OCc3ccccc3)c[nH]2)n1
1000 s	Cc1ccc(Cl)cc1NC(=O)c1cccn1Cc1noc(C2CC2)n1
571 s	Cn1cnc2cc(CNC(=O)c3cccs3)ccc21
624 s	CC(C)CNC(=O)C1Cn2cccc2C(=O)N1C (stereo not drawn)
1030 s	CCCc1ccc(S(=O)(=O)N2CC=C(c3cn(C)c4ncccc34)CC2)cc1
614 s	Cc1ccnc(NC(=O)C2CCCN(S(=O)(=O)c3c[nH]c(C(=O)N4CCCC4)c3)C2)c1 (stereo not drawn)
1080 s	COc1ccc(-n2nnc(-c3nc(-c4cc(OC)ccc4OC)cs3)c2N)cc1
569 s	CN(C)CCNC(=O)c1ccc(CS(=O)c2ccc(F)cc2)o1 (stereo not drawn)
1100 s	Fc1ccccc1-c1noc(Cc2nnc(-c3ccc(Cl)cc3)o2)n1
752 s	CCCS(=O)(=O)N1CCc2[nH]nc(-c3ccccc3)c2C1
1120 s	O=C(NC1CCCC1)C1CCCN(S(=O)(=O)c2cc(-c3noc(C4CCCC4)n3)cs2)C1 (stereo not drawn)
678 s	O=C1NC2(CCN(C(=O)c3ccc4c(c3)OCO4)CC2)Nc2c(Cl)cccc21
678 s	O=C(C1CCOC1)N1CCCn2nc(-c3cccs3)cc2C1 (stereo not drawn)
732 s	Cc1ccn2cc(-c3cccc(NS(=O)(=O)c4cc(C)c(C)cc4C)c3)nc2c1
655 s	COc1ccc2c(NCCCCCCNc3c4ccccc4nc4cc(OC)ccc34)c3ccccc3nc2c1
824 s	O=C(NCc1ccc(Cl)cc1)C1CCN(c2ccc(SCc3ccccc3)nn2)CC1

RP-LC retention time	SMILES
894 s	O=C(Cn1nc(N2CCOCC2)c2ccccc2c1=O)Nc1ccc(Br)cc1F
596 s	CCNC(=O)c1cc(C)no1
746 s	O=C(CN1C(=O)S/C(=C\c2ccccc2)C1=O)NCCN1C(=O)CSC1=O
650 s	O=C(Cn1cnc2nc(N3CCC(C(=O)NC4CC4)CC3)sc2c1=O)Nc1ccccc1
712 s	Fc1ccc(CN2CCC(F)(c3nc(-c4cnccn4)no3)CC2)c(Cl)c1
719 s	O=S1(=O)C[C@H](N2CCN(c3ncccn3)CC2)[C@@H](S(=O)(=O)c2cccs2)C1
832 s	O=C(NC1CCCCC1)c1cccc2c1CCN2C(=O)C1CC1
726 s	Cc1c(C(=O)O)nnn1-c1ccc(F)c(Cl)c1
783 s	COc1ncc(C(=O)NCc2ccccc2C(F)(F)F)cn1
793 s	CC(C)NC(=O)c1cccc(N2C(=O)NC3CC2(C)Oc2ccc(Br)cc23)c1 (stereo not drawn)
883 s	CCC(C)NC(=O)NC1CCN(C2=NS(=O)(=O)C(c3ccc(Cl)cc3)=C2C)CC1 (stereo not drawn)
1110 s	COc1ccc(-c2noc(Cn3c(=O)n(C(C)C)c(=O)c4ccccc43)n2)cc1
828 s	Cc1ccc(C(=O)N2CCC(CC(=O)NCCc3c[nH]c4ccc(Cl)cc34)CC2)cc1
667 s	CCCC(NC(=O)c1ccsc1)C(=O)Nc1nc2ccccc2[nH]1 (stereo not drawn)
894 s	O=C(Cn1ccn2nc(-c3ccc(F)cc3)c(CO)c2c1=O)Nc1cc(F)ccc1Cl
876 s	CC(C)Cn1ccc2c(cc(C(=O)Nc3cc(F)ccc3F)n2C)c1=O
679 s	Cc1cc(Cl)ccc1S(=O)(=O)N1CCc2c(c(CN3CCCC3)nn2C)C1
806 s	Cc1ccsc1C(=O)NCCn1c(=O)n(Cc2ccccc2)c2cccnc21
840 s	Cc1sc(NC(=O)C(F)(F)F)nc1-c1ccc2c(c1)NC(=O)C(C)O2 (stereo not drawn)
773 s	O=C(CN1C(=O)c2cccnc2Sc2ccccc21)NCCc1c[nH]c2ccccc12

SMILES	RP-LC retention time
C[C@@H]1O[C@@H](O[C@H]2C[C@@H](O)[C@]3(CO)[C@@H]4C(CC[C@]3(O)C2)[C@@]2(O)CC[C@H](C3COC(=O)C3)[C@@]2(C)C[C@H]4O)[C@H](O)[C@H](O)[C@H]1O (stereo partly drawn)	602 s
O=C(Nc1ccc(Cl)cc1)c1c(O)c2cccnc2n(Cc2ccccc2)c1=O	1290 s
